Experimental findings from ChEMBL document CHEMBL4725222, “Advances in the Development of Phosphodiesterase-4 Inhibitors” (J Med Chem, 2020) are described below.

Experiment [1] concerns the target T1, 3',5'-cyclic-AMP phosphodiesterase 4B (Homo sapiens, UniProt Q07343). The experiment can be described thus: Inhibition of recombinant human PDE4B2 using cAMP as substrate preincubated for 15 mins followed by substrate addition and measured after 60 mins by Alphascreen assay. In general terms: In Alpha technology, singlet oxygen from a donor bead excites a nearby acceptor bead.

In experiment [2] the target is 3',5'-cyclic-AMP phosphodiesterase 4C (Homo sapiens, UniProt Q08493). As to the kind of experiment: Inhibition of N-terminal GST tagged full length human PDE4C1 expressed in baculovirus infected Sf9 cell expression system using cAMP as substrate incubated for 60 mins by time-resolved fluorescence competitive immunoassay.
Chain of 3',5'-cyclic-AMP phosphodiesterase 4C (Q08493 whole entry): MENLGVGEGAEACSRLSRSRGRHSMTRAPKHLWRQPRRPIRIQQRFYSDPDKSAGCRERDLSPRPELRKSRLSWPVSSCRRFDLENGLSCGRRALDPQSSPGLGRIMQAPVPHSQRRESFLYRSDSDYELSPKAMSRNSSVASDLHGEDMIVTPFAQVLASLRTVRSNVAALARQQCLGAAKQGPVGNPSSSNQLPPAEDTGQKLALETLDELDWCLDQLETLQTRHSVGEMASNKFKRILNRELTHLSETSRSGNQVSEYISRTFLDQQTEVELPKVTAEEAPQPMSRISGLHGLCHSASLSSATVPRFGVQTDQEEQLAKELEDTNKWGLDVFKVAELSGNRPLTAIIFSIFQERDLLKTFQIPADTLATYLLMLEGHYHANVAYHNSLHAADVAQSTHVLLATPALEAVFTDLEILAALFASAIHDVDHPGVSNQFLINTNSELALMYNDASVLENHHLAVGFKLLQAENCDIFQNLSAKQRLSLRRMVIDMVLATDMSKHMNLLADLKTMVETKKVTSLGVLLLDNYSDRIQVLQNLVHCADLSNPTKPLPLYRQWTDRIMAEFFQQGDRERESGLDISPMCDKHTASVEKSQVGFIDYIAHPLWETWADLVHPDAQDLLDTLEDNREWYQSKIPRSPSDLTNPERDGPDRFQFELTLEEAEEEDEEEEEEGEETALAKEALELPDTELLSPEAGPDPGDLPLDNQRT
Experiment [3] addresses T1, 3',5'-cyclic-AMP phosphodiesterase 4B. The experiment can be described thus: Inhibition of N-terminal GST tagged full length human PDE4B2 expressed in baculovirus infected Sf9 cell expression system using cAMP as substrate incubated for 60 mins by time-resolved fluorescence competitive immunoassay.
Experiment [4] is described as follows: Inhibition of guinea-pig neutrophil derived PDE4. Also on record: species or system Cavia porcellus.
A short description of experiment [5]: Inhibition of guinea-pig platelet derived PDE3. Also on record: species or system Cavia porcellus.
Experiment [6] can be described thus: Inhibition of TNFalpha in mouse model of sepsis. The experiment is classed as functional.
The target of experiment [7] is T2, Phosphodiesterase 4 (Homo sapiens, UniProt P27815+Q08499+Q07343+Q08493). The experiment can be described thus: Inhibition of PDE4 (unknown origin). It counts as protein assay.
For experiment [8], the target named is T2, Phosphodiesterase 4. As to the kind of experiment: Inhibition of human U-937 cell derived PDE4 using [3H]-cAMP or [3H]-cGMP as substrate incubated for 60 mins by scintillation proximity assay. It counts as protein assay.
Experiment [9] deals with T3, 3',5'-cyclic-AMP phosphodiesterase 4D (Homo sapiens, UniProt Q08499). The experiment can be described thus: Inhibition of human PDE4D2 catalytic domain (86 to 413 residues) expressed in Escherichia coli BL21 cells using 3H-cGMP or 3H-cAMP as substrate by liquid scintillation counting method.
T3 sequence (Q08499 whole entry, the tested form may be a part): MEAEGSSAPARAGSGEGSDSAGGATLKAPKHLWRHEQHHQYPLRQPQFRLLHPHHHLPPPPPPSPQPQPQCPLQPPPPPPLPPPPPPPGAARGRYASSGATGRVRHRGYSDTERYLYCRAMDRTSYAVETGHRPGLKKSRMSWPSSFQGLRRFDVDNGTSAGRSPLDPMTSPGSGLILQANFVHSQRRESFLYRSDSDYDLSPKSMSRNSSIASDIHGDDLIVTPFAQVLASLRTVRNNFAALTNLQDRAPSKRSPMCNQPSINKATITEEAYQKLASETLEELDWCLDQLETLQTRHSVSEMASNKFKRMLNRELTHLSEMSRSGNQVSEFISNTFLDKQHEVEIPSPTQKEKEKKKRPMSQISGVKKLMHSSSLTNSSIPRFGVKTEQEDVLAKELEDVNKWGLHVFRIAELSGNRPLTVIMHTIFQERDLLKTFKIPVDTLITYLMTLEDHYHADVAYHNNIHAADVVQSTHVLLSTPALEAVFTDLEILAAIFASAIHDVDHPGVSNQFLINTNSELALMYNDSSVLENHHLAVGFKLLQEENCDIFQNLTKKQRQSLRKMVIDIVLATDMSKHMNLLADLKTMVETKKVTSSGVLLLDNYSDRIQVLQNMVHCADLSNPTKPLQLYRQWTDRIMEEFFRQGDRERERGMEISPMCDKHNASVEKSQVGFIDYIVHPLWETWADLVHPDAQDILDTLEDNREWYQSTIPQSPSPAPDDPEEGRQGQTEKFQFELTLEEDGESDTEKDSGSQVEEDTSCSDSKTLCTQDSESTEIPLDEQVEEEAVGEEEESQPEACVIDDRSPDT
The target of experiment [10] is T3, 3',5'-cyclic-AMP phosphodiesterase 4D. As to the kind of experiment: Inhibition of full length human PDE4D2 preincubated for 10 mins followed by cAMP addition and measured after 30 mins by fluorescence method.
The target of experiment [11] is T1, 3',5'-cyclic-AMP phosphodiesterase 4B. The experiment can be described thus: Inhibition of full length human PDE4B2 expressed in baculovirus infected Sf9 cell expression system preincubated for 10 mins followed by cAMP addition and measured after 30 mins by fluorescence method.
Experiment [12] addresses T2, Phosphodiesterase 4. As to the kind of experiment: Inhibition of human U937 cell derived PDE4 using [3H]cAMP as substrate incubated for 60 mins by Scintillation proximity assay. It counts as protein assay. A general note: Scintillation proximity formats need no separation of bound from free tracer.
A short description of experiment [13]: Inhibition of recombinant human His-tagged PDE7 expressed in baculovirus infected in sf9 cells incubated for 60 mins by Scintillation counting method.
The target of experiment [14] is T2, Phosphodiesterase 4. The experiment can be described thus: Inhibition of cytosolic PDE4 in human PMNL using [3H]cAMP as substrate by liquid scintillation counting method.
A short description of experiment [15]: Antiinflammatory activity in human nasal polyp cells assessed as reduction in TNFalpha release incubated for 30 mins followed by anti-IgE stimulation and measured after 18 hrs by ELISA. The experiment is classed as functional, cell-based. Particulars: Nasal polyp cell. In general terms: An ELISA detects its analyte on a solid surface through an enzyme-linked reagent.

For experiment [16], the target named is 3',5'-cyclic-AMP phosphodiesterase 4A (Homo sapiens, UniProt P27815). The experiment can be described thus: Inhibition of PDE4A (unknown origin).
Chain of 3',5'-cyclic-AMP phosphodiesterase 4A (P27815 whole entry): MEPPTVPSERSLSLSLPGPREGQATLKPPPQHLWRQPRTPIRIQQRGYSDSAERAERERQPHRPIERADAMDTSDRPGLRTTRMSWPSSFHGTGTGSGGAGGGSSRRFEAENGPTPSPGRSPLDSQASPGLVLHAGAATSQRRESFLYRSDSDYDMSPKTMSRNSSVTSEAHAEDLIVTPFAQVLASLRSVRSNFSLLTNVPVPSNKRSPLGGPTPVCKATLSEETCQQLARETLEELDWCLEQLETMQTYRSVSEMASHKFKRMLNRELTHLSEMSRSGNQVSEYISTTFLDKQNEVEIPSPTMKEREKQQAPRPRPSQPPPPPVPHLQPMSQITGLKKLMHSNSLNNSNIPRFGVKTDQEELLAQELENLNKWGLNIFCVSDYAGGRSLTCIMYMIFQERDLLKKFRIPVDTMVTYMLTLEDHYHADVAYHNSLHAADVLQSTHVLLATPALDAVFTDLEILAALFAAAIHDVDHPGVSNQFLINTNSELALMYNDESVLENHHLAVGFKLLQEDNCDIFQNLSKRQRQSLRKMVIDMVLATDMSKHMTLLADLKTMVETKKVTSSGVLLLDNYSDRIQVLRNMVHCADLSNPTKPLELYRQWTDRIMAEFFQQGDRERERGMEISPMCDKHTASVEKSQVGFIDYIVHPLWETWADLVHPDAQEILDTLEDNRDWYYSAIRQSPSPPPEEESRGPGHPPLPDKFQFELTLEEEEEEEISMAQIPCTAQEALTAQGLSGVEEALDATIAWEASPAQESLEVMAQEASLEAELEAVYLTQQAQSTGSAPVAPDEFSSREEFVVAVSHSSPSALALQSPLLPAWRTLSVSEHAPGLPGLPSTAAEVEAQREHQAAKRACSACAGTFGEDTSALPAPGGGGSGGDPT
The target in experiment [17] is T3, 3',5'-cyclic-AMP phosphodiesterase 4D. The experiment can be described thus: Inhibition of PDE4D (unknown origin).
In experiment [18] the target is T1, 3',5'-cyclic-AMP phosphodiesterase 4B. As to the kind of experiment: Inhibition of PDE4B (unknown origin).
The nature of experiment [19]: Induction of FEV1 in COPD patient at 18 ug/kg administered as single dose. It counts as functional, Homo sapiens. To be noted: dose 18 µg/kg.
Experiment [20] in a line: Inhibition of recombinant human PDE4B2B (1 to 564 residues) expressed in Saccharomyces cerevisiae using cAMP as substrate preincubated for 30 mins followed by cAMP addition and measured after 60 mins by luminescence method.
Experiment [21] has as its target T2, Phosphodiesterase 4. As to the kind of experiment: Inhibition of human PDE4 using [3H]cAMP as substrate incubated for 30 mins. It counts as protein assay.
For experiment [22], the target named is cGMP-inhibited 3',5'-cyclic phosphodiesterase 3A (Homo sapiens, UniProt Q14432). As to the kind of experiment: Inhibition of recombinant human PDE3A catalytic domain expressed in baculovirus infected sf9 cells using 3H-cAMP as substrate incubated for 20 mins by scintillation counting method.
Chain of cGMP-inhibited 3',5'-cyclic phosphodiesterase 3A (Q14432 whole entry, the tested form may be a part): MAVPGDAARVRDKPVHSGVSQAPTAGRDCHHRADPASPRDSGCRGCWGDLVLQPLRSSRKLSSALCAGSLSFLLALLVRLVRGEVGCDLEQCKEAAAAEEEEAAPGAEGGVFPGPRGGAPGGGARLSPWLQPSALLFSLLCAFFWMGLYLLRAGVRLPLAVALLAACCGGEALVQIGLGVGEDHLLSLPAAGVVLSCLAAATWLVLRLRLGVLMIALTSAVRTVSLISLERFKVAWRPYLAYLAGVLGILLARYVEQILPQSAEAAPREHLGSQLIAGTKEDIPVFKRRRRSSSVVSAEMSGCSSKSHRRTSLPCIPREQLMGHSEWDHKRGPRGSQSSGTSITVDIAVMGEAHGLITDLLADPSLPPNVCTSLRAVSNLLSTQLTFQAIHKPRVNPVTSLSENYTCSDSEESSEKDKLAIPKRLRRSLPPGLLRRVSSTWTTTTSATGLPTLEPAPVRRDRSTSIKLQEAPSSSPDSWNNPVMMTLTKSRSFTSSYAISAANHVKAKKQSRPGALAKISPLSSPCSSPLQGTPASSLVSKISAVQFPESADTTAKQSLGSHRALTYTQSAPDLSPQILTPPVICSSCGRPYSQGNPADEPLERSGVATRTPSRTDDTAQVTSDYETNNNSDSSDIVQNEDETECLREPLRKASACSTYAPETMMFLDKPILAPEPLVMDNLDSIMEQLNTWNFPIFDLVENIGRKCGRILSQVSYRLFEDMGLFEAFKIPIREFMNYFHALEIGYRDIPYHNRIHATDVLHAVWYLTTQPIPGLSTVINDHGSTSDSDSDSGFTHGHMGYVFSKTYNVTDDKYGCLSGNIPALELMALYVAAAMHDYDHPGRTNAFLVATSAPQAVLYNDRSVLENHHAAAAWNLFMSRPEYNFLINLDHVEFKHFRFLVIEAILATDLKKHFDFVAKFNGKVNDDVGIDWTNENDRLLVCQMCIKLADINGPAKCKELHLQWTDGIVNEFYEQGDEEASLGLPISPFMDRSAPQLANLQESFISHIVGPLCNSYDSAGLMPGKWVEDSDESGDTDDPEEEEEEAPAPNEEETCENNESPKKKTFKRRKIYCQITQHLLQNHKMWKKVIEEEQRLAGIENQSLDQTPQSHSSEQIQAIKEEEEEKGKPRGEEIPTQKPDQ
Experiment [23] concerns the target T1, 3',5'-cyclic-AMP phosphodiesterase 4B. The experiment can be described thus: Inhibition of recombinant human PDE4B catalytic domain expressed in baculovirus infected sf9 cells using 3H-cAMP as substrate incubated for 20 mins by scintillation counting method.
The nature of experiment [24]: Inhibition of bovine aorta cytosolic PDE4 using cyclic AMP as substrate by liquid scintillation counting. More on the design: species or system Bos taurus.

T1 sequence (Q07343 whole entry): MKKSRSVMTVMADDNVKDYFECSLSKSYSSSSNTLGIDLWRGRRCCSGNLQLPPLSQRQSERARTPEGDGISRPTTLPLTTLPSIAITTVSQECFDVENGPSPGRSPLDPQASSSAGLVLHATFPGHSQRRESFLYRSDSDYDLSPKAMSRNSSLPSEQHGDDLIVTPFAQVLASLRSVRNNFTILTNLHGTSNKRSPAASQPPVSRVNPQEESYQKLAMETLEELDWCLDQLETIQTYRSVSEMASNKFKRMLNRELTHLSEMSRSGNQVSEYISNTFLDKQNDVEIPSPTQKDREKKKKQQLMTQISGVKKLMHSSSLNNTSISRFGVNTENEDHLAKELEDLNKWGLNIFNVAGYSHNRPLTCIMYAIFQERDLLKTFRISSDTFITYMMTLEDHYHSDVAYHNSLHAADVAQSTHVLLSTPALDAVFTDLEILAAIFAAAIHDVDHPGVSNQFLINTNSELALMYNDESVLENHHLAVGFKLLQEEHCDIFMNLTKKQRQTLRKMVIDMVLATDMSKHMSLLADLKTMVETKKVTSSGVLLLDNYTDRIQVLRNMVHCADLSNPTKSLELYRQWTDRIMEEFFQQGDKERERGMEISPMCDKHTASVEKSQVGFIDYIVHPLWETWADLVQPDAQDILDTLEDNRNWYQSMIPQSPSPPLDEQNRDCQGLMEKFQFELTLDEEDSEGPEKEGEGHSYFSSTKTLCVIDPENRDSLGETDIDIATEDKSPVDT

Take `COc1ccc(-c2nc(C(=O)NCc3coc4ccccc34)c([C@@H](C)N)o2)c2ccc(C(F)(F)F)nc12`: in experiment [1], the IC50 amounted to 0.01 nM.
Regarding `CCOc1cc([C@H](CS(C)(=O)=O)N2C(=O)c3cccc(NC(=O)OCCOCCOCCOCCOCCOCCOCCOC)c3C2=O)ccc1OC`, the 50% inhibitory concentration (IC50) in experiment [2] and in [3] was 3 nM throughout.
With `CCOc1cc([C@H](CS(C)(=O)=O)N2C(=O)c3cccc(NC(=O)OCCOCCOCCOCCOC)c3C2=O)ccc1OC`, the IC50 in experiment [2] and in experiment [3] was 3 nM in each case.
`COc1cc2c(cc1OC)[C@@H]1CN(C)CC[C@@H]1N=C2c1ccc(NC(C)=O)cc1` [BENAFENTRINE]: the IC50 in experiment [4] was determined as 1760 nM; in experiment [5] it was 1740 nM.
On to `NS(=O)(=O)c1cccc(-c2c(-c3ccccc3)nc(C(F)(F)F)nc2N2CCOCC2)c1`, for which, in [6], the EC50 came to 0.01 mg/kg. On Phosphodiesterase 4 [7], this compound gave an IC50 of 7 nM.
For the compound `CCOc1cc([C@H](CS(C)(=O)=O)N2C(=O)c3cccc(NC(=O)OCCOCCOCCOCCOCCOCCOCCOCCOC)c3C2=O)ccc1OC`, the IC50 in [2] and in experiment [3] was 3 nM throughout.
As for `COc1ccc(C2=NN(C3CCN(S(=O)(=O)c4ccccc4C)CC3)C(=O)C(C)(C)C2)cc1OC`, the pIC50 against Phosphodiesterase 4 [7] is given as 9.45.
`CNc1nc(-c2cccc(NC(=O)c3ccc(C(=O)OC)cc3)c2)c2cc(OC)c(OC)cc2n1` [LOTAMILAST]: the IC50 at Phosphodiesterase 4 [8] is on record as 2.8 nM.
As to `CCOc1cc([C@H](CS(C)(=O)=O)N2C(=O)c3cccc(NC(=O)OCCOCCOCCOC)c3C2=O)ccc1OC`, the IC50 in [2] and in experiment [3] was 3 nM each time.
The compound `COc1ccc([C@@]2(c3cccc(OC)c3)c3cc(O)ccc3-c3ccc(C=O)c(C#Cc4ccc(O)cc4)c32)cc1` showed a half-inhibitory concentration (IC50) in [9] of 11 nM.
For the compound `COc1ccc(-c2nc3c(c(Nc4ccc(CC(=O)O)cc4)n2)SCCC3)cc1F`, the IC50 came to 440 nM in experiment [10] and 5.5 nM in experiment [11].
As for `CCOc1cc([C@H](CS(C)(=O)=O)N2C(=O)c3cccc(NC(=O)OCCOCCOCCOCCOCCOCCOC)c3C2=O)ccc1OC`, the IC50 in experiment [2] and in [3] was 3 nM in each case.
Regarding `CCOc1ccc(-c2c(C(C)(C)O)oc(=O)c3ccccc23)cc1OC1CCCC1`, the figures for the IC50 (on Phosphodiesterase 4 [12]; in experiment [13]) were 2900 nM and 1400 nM, respectively.
With `O=C(C(=O)c1cn(Cc2ccc(F)cc2)c2ccc(O)cc12)c1c(Cl)cncc1Cl`, the IC50 on Phosphodiesterase 4 [14] was 9.7 nM. In addition, in experiment [15], the EC50 is 110 nM.
Regarding `CCOc1cc([C@H](CS(C)(=O)=O)N2C(=O)c3cccc(NC(=O)OCCOCCOCCOCCOCCOC)c3C2=O)ccc1OC`, the IC50 in experiment [2] and in experiment [3] was 3 nM in each case.
As for `Cc1ccc(O)c(C(=O)N[C@H]2CC[C@@H](NC(=O)c3cc(F)cnc3Oc3ccc(F)c(F)c3)CC2)c1` [UK-500001], the IC50 in [16], in [17] and in experiment [18] was 0.38 nM in each case.
In experiment [19], `COc1cc2c(cc1OC)-c1c/c(=N\c3c(C)cc(C)cc3C)n(CCNC(N)=O)c(=O)n1CC2` [ENSIFENTRINE] had an Activity greater than 15%.
Turning to `CCn1ncc2c(NC3CCOCC3)c(-c3nnc(Cc4sc(C)nc4C)o3)cnc21`, the pIC50 in [20] is 8.8.
For the compound `COc1ccc(C2=CNC(=O)N(Cc3nc4cccc(C#N)c4o3)C2)cc1OC1CCCC1`, the IC50 at Phosphodiesterase 4 [21] is listed as 12 nM.
Take `COC1=CC=C(C2=NN(CCCCCOc3ccc(C4=NNC(=O)CC4C)cc3)C(=O)CC2C)C2CC(C(F)(F)F)=NN12` (stereo unspecified): the IC50 in experiment [22] came to 360 nM; in experiment [23], 42 nM.
As to `O=C(Nc1c(Cl)cncc1Cl)C(=O)c1cn(Cc2ccc(F)cc2)c2ncccc12` [ELBIMILAST], the IC50 against Phosphodiesterase 4 [7] is given as 3 nM.
Consider `CCOc1cc2c(cc1OCC)C(c1ccc(CCCN3CCN(c4ccc(Cl)cc4)CC3)cc1)=NCC(=O)N2`, for which the IC50 in experiment [24] was found to be 40 nM.

In general, IC50 refers to the concentration needed to halve the response being measured. Broadly, the pIC50 is −log10 of the IC50, conventionally taken in molar units.
